Reference: patent US9586951B2 (FUJIFILM Corporation, priority 2013, dated 2017)

Molecular target: T1, ATM (Homo sapiens, UniProt Q13315)
T1 construct: detecting phosphorylation of Chk2 in a human non-small cell lung cancer cell line NCI-H460 (ATCC company); host or cells: NCI-H460 human non-small cell lung cancer cells
Test: ATM inhibition test (phosphorylation of Chk2 generated by ionizing radiation, AlphaScreen SureFire)
Type: cell-based
Conditions: phosphorylated Chk2 in NCI-H460 cells, ionizing radiation 8Gy, 1 hour after test compound treatment; read-out: ATM inhibitory activity
Method in brief: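 Human NCI-H460 lung cancer cells were treated with compound for 1 h, then irradiated at 8Gy and incubated 1 h at 37° C. Phospho-Chk2 was quantified by AlphaScreen SureFire; inhibition % was normalised between irradiated untreated and non-irradiated untreated wells.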

T1 sequence (Q13315 whole entry): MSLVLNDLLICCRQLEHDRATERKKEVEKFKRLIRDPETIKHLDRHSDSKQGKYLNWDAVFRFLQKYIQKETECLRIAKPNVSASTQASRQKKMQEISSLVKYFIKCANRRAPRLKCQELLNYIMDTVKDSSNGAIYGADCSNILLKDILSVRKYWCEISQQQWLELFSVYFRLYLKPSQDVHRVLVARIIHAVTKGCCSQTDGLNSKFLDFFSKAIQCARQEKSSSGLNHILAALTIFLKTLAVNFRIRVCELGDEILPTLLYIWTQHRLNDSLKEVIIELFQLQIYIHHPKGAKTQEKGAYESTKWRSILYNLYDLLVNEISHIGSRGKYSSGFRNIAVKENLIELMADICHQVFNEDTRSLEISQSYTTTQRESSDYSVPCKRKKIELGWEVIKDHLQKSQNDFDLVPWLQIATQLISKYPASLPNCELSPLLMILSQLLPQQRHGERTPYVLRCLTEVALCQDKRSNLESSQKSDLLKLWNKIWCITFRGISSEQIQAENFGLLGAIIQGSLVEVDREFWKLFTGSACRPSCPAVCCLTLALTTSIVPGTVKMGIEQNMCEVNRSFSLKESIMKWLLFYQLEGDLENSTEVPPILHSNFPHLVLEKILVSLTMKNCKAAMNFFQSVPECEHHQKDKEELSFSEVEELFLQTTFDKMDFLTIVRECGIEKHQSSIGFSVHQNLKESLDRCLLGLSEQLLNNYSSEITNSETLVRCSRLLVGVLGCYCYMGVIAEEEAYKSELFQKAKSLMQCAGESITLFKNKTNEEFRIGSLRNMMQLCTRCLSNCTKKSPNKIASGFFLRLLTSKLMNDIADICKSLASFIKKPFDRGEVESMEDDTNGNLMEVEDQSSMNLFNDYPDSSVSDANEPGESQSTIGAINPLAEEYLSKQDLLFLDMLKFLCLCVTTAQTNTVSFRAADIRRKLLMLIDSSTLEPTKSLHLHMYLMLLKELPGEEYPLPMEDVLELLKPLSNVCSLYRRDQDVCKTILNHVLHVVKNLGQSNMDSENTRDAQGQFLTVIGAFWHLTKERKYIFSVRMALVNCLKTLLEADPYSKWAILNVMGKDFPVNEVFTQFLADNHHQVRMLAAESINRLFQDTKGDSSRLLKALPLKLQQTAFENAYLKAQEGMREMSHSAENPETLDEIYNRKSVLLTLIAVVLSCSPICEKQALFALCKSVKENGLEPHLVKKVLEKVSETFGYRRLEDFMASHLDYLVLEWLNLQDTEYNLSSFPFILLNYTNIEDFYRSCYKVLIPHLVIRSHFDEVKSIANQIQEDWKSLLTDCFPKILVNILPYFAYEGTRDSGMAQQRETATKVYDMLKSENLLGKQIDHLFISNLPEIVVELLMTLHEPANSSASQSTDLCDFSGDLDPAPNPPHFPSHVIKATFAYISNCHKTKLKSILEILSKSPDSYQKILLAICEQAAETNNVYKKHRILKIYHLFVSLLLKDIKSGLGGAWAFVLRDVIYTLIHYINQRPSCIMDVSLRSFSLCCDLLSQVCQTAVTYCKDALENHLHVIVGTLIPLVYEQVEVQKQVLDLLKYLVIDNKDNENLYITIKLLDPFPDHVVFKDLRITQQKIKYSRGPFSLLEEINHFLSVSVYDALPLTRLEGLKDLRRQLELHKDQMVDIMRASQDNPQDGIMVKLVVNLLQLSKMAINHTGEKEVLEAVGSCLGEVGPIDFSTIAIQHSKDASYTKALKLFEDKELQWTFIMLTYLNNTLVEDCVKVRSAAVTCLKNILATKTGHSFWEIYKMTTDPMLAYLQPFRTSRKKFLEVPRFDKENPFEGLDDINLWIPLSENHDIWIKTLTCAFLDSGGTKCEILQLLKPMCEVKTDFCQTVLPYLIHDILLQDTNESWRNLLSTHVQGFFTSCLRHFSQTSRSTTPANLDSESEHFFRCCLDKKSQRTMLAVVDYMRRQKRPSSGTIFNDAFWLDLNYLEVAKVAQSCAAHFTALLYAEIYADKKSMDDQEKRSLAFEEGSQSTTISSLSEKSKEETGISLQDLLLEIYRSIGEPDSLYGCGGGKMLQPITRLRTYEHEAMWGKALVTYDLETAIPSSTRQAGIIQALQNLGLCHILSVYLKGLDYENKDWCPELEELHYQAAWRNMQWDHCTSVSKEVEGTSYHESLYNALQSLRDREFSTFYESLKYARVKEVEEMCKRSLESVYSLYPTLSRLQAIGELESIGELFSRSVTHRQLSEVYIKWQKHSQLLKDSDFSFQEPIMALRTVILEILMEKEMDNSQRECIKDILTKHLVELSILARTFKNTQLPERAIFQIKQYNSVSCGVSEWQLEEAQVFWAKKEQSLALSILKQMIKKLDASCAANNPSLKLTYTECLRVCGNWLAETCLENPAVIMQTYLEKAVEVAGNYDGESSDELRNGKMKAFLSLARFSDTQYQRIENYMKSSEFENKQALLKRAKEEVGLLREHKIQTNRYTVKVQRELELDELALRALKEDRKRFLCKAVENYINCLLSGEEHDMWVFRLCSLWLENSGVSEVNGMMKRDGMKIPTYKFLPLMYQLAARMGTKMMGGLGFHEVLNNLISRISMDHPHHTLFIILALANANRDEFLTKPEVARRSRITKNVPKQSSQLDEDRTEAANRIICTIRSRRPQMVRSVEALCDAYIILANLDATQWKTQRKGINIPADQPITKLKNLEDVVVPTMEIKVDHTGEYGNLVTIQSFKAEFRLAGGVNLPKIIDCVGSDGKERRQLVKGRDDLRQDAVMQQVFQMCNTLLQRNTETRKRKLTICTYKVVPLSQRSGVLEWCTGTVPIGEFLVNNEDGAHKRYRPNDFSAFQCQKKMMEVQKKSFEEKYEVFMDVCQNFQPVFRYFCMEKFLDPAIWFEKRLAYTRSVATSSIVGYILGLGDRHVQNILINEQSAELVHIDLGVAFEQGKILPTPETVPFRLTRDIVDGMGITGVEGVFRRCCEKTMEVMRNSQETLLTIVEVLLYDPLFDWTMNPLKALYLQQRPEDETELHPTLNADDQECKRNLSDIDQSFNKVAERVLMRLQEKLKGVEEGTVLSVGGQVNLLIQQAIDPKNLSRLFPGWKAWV

Which IC50 does the source give for `CN(C)c1cnc(CNc2ccc3c(c2)Cc2cccc(-c4cc(N5CCOCC5)cc(=O)[nH]4)c2O3)cn1` [Example 2-2-37] here?
The IC50 was less than 100 nM.

How did the IC50 turn out when `CC(CNc1ccc2c(c1)Sc1cccc(-c3cc(N4CCOCC4)cc(=O)[nH]3)c1S2)N1CCOCC1` (racemic) [Example 1-9-2-1, 4-Morpholino-6-(7-((2-morpholinopropyl)amino)thianthren-1-yl)pyridin-2(1H)-one] was run?
Its IC50 is less than 100 nM.

How did the IC50 turn out when `O=c1cc(N2CCOCC2)cc(-c2cccc3c2Oc2ccc(NCc4ccnc(Br)c4)cc2S3)[nH]1` [Example 4-4-16, 6-(8-(((2-Bromopyridin-4-yl)methyl)amino)phenoxathiin-4-yl)-4-morpholino pyridin-2(1H)-one] was run?
Its IC50 is less than 100 nM.

With `COc1ccnc(CNc2ccc3c(c2)Sc2cccc(-c4cc(N5CCOCC5)cc(=O)[nH]4)c2O3)c1` [Example 4-8-8, 6-(8-(((4-Methoxypyridin-2-yl)methyl)amino)phenoxathiin-4-yl)-4-morpholino pyridin-2 (1H)-one] as the compound, how does the IC50 read?
Its IC50 is less than 100 nM.

Which IC50 does the source give for `Cc1cnc(C(C)Nc2ccc3c(c2)Cc2cccc(-c4cc(N5CCOCC5)cc(=O)[nH]4)c2O3)cn1` (single isomer, unassigned) [Example 2-14-90-2, 6-(7-((1-(5-methylpyrazin-2-yl)ethyl)amino)-9H-xanthen-4-yl)-4-morpholinopyridin-2(1H)-one] here?
The IC50 was less than 100 nM.

`CC(CNc1ccc2c(c1)Sc1cccc(-c3cc(N4CCOCC4)cc(=O)[nH]3)c1S2)CN1CCOCC1` (centres unmarked) [Example 8-4, 6-(7-((2-Methyl-3-morpholinopropyl)amino)thianthren-1-yl)-4-morpholinopyridin-2(1H)-one] was tested. Which IC50 did it give?
Its IC50 is 100 to 500 nM.

`CC(Nc1ccc2c(c1)Sc1cccc(-c3cc(N4CCOCC4)cc(=O)[nH]3)c1S2)c1cccc(CN(C)C)n1` (centres unmarked) [Example 1-12-111, 6-(7-((1-(6-((Dimethylamino)methyl)pyridin-2-yl)ethyl)amino)thianthren-1-yl)-4-morpholino pyridin-2(1H)-one] was tested. Which IC50 did it give?
Its IC50 is 100 to 500 nM.

With `CCN(C)CCC(Nc1ccc2c(c1)Sc1cccc(-c3cc(N4CCOCC4)cc(=O)[nH]3)c1S2)c1cnc(C)cn1` (single isomer, unassigned) [Example 1-51-10, 6-(7-((3-(Ethyl(methyl)amino)-1-(5-methylpyrazin-2-yl)propyl)amino)thianthren-1-yl)-4-morpholino pyridin-2(1H)-one] as the compound, how does the IC50 read?
The IC50 was less than 100 nM.

For `CC(CN1CC2(COC2)C1)Nc1ccc2c(c1)Sc1cccc(-c3cc(N4CCOCC4)cc(=O)[nH]3)c1S2` (centres unmarked) [Example 1-43-2, 6-(7-((1-(2-Oxa-6-azaspiro [3.3]heptan-6-yl)propan-2-yl)amino)thianthren-1-yl)-4-morpholino pyridin-2(1H)-one], which IC50 is on record?
Its IC50 is 100 to 500 nM.

Which IC50 does the source give for `COc1ccc(CCN2CCC(Nc3ccc4c(c3)Cc3cccc(-c5cc(N6CCOCC6)cc(=O)[nH]5)c3O4)CC2)cc1` [Example 2-30-2, 6-(7-((1-(4-Methoxyphenethyl)piperidin-4-yl)amino)-9H-xanthen-4-yl)-4-morpholino pyridin-2 (1H)-one] here?
Its IC50 is 100 to 500 nM.

For `CCC(Nc1ccc2c(c1)Cc1cccc(-c3cc(N4CCOCC4)cc(=O)[nH]3)c1O2)c1cncc(OC)c1` (single isomer, unassigned) [Example 2-37, 6-(7-((1-(5-methoxypyridin-3-yl)propyl)amino)-9H-xanthen-4-yl)-4-morpholinopyridin-2(1H)-one], which IC50 is on record?
Its IC50 is 100 to 500 nM.

How did the IC50 turn out when `COc1ccnc(C(C)Nc2ccc3c(c2)Cc2cccc(-c4cc(N5CCOCC5)cc(=O)[nH]4)c2O3)c1` (single isomer, unassigned) [Example 2-14-86-1, 6-(7-((1-(4-methoxypyridin-2-yl)ethyl)amino)-9H-xanthen-4-yl)-4-morpholinopyridin-2(1H)-one] was run?
Its IC50 is 100 to 500 nM.

For `CNCCC(Nc1ccc2c(c1)Sc1cccc(-c3cc(N4CCOCC4)cc(=O)[nH]3)c1S2)c1cnc(C)cn1` (centres unmarked) [Example 1-20-11, 6-(7-((3-(Methylamino)-1-(5-methylpyrazin-2-yl)propyl)amino)thianthren-1-yl)-4-morpholino pyridin-2 (1H)-one], which IC50 is on record?
The IC50 was 500 to 2000 nM.

With `COc1ncccc1CNc1ccc2c(c1)Cc1cccc(-c3cc(N4CCOCC4)cc(=O)[nH]3)c1S2` [Example 3-8-8, 6-(7-(((2-Methoxypyridin-3-yl)methyl)amino)-9H-thioxanthen-4-yl)-4-morpholino pyridin-2 (1H)-one] as the compound, how does the IC50 read?
Its IC50 is 500 to 2000 nM.

With `Cc1ccnc(C(C)Nc2ccc3c(c2)Cc2cccc(-c4cc(N5CCOCC5)cc(=O)[nH]4)c2O3)n1` (centres unmarked) [Example 2-14-79, 6-(7-((1-(4-Methylpyrimidin-2-yl)ethyl)amino)-9H-xanthen-4-yl)-4-morpholino pyridin-2(1H)-one] as the compound, how does the IC50 read?
Its IC50 is 100 to 500 nM.

With `O=c1cc(N2CCOCC2)cc(-c2cccc3c2Oc2ccc(NC4CCN(c5ccncc5)CC4)cc2C3)[nH]1` [Example 2-2-22, 4-Morpholino-6-(7-((1-(pyridin-4-yl)piperidin-4-yl)amino)-9H-xanthen-4-yl) pyridin-2(1H)-one] as the compound, how does the IC50 read?
Its IC50 is less than 100 nM.

How did the IC50 turn out when `COCCNCCC(Nc1ccc2c(c1)Sc1cccc(-c3cc(N4CCOCC4)cc(=O)[nH]3)c1S2)c1cccc(C)n1` (centres unmarked) [Example 1-20-10, 6-(7-((3-((2-Methoxyethyl)amino)-1-(6-methylpyridin-2-yl)propyl)amino)thianthren-1-yl)-4-morpholino pyridin-2 (1H)-one] was run?
Its IC50 is 100 to 500 nM.

Which IC50 does the source give for `Cc1ccc(C(Nc2ccc3c(c2)Sc2cccc(-c4cc(N5CCOCC5)cc(=O)[nH]4)c2S3)[C@@H]2CCN(C)C2)nc1` (single isomer, unassigned) [Example 1-56-16] here?
The IC50 was less than 100 nM.

How did the IC50 turn out when `Cc1ccc(C(CC(C)C)Nc2ccc3c(c2)Sc2cccc(-c4cc(N5CCOCC5)cc(=O)[nH]4)c2S3)nc1` (centres unmarked) [Example 1-12-120, 6-(7-((3-Methyl-1-(5-methylpyridin-2-yl)butyl)amino)thianthren-1-yl)-4-morpholino pyridin-2(1H)-one] was run?
The IC50 was 100 to 500 nM.

For `CC(=O)Nc1cccc(CNc2ccc3c(c2)Cc2cccc(-c4cc(N5CCOCC5)cc(=O)[nH]4)c2O3)n1` [Example 2-2-73, N-(6-(((5-(4-Morpholino-6-oxo-1,6-dihydropyridin-2-yl)-9H-xanthen-2-yl)amino)methyl)pyridin-2-yl) acetamide], which IC50 is on record?
Its IC50 is 500 to 2000 nM.

With `CC(C)(CN1CCOCC1)Nc1ccc2c(c1)Sc1cccc(-c3cc(N4CCOCC4)cc(=O)[nH]3)c1S2` [Example 1-46-2, 6-(7-((2-methyl-1-morpholinopropan-2-yl)amino)thianthren-1-yl)-4-morpholinopyridin-2(1H)-one] as the compound, how does the IC50 read?
The IC50 was 100 to 500 nM.

Which IC50 does the source give for `CC(Nc1ccc2c(c1)Cc1cccc(-c3cc(N4CCOCC4)cc(=O)[nH]3)c1O2)c1cccs1` (centres unmarked) [Example 2-14-44, 4-Morpholino-6-(7-((1-(thiophen-2-yl)ethyl)amino)-9H-xanthen-4-yl) pyridin-2(1H)-one] here?
The IC50 was 100 to 500 nM.

For `Cc1cccc(C(CCN2CCCCC2)Nc2ccc3c(c2)Sc2cccc(-c4cc(N5CCOCC5)cc(=O)[nH]4)c2S3)n1` (centres unmarked) [Example 1-34-3, 6-(7-((1-(6-Methylpyridin-2-yl)-3-(piperidin-1-yl)propyl)amino)thianthren-1-yl)-4-morpholino pyridin-2(1H)-one], which IC50 is on record?
Its IC50 is less than 100 nM.

`CCN(CC)CC(Nc1ccc2c(c1)Sc1cccc(-c3cc(N4CCOCC4)cc(=O)[nH]3)c1S2)c1cnc(C)cn1` (centres unmarked) [Example 1-33, 6-(7-((2-(diethylamino)-1-(5-methylpyrazin-2-yl)ethyl)amino)thianthren-1-yl)-4-morpholinopyridin-2(1H)-one] was tested. Which IC50 did it give?
The IC50 was 100 to 500 nM.

For `Cc1cccc(C(CO)Nc2ccc3c(c2)Sc2cccc(-c4cc(N5CCOCC5)cc(=O)[nH]4)c2S3)n1` (single isomer, unassigned) [Example 1-12-140-1, 6-(7-((2-hydroxy-1-(6-methylpyridin-2-yl)ethyl)amino)thianthren-1-yl)-4-morpholinopyridin-2(1H)-one], which IC50 is on record?
Its IC50 is 100 to 500 nM.

How did the IC50 turn out when `COc1cccc(CNc2ccc3c(c2)Cc2cccc(-c4cc(N5CCOCC5)cc(=O)[nH]4)c2O3)n1` [Example 2-2-32, 6-(7-(((6-Methoxypyridin-2-yl)methyl)amino)-9H-xanthen-4-yl)-4-morpholino pyridin-2(1H)-one] was run?
Its IC50 is 100 to 500 nM.

With `CC(C)N1CCC(Nc2ccc3c(c2)Sc2cccc(-c4cc(N5CCOCC5)cc(=O)[nH]4)c2S3)CC1` [Example 1-12-116, 6-(7-((1-Isopropylpiperidin-4-yl)amino)thianthren-1-yl)-4-morpholino pyridin-2(1H)-one] as the compound, how does the IC50 read?
Its IC50 is 100 to 500 nM.

Test system: human non-small cell lung cancer cell line NCI-H460
Test: Cell proliferation inhibition test by sensitivity-enhancing to ionizing radiation (Cell Titer Glo)
Type: cell-based
Conditions: Homo sapiens, NCI-H460, 120 h, concentration in which SER became 2; NCI-H460 cells, ionizing radiation 2 Gy, cultured 120 hour
Procedure: A human non-small cell lung cancer cell line NCI-H460 (ATCC company) was adjusted so as to be 2×10^3 cells/mL in a RPMI-1640 medium containing penicillin/streptomycin and FBS having a final concentration of 10%, and this was seeded by 100 μL per well in 96-well CellBIND® plates (Corning International Inc.). After 24 hours, the medium of cells was replaced with 100 μL of a medium including serially diluted liquid of the test compound or DMSO having a final concentration of 0.1%. 30 minutes after the medium was replaced, half of the plates were irradiated with ionizing radiation 2 Gy (Faxitron Bioptics, LLC, RX-650 type). The cells of the plates irradiated with ionizing radiation and the plates not being irradiated with ionizing radiation were cultured at 37° C. for 120 hour in 5% CO2. After a Cell Titer Glo reaction liquid of an equal volume was added to each well, the amount of luminescence was measured, according to the instruction book of Cell Titer Glo (Promega Corporation). Since the amount of luminescence is proportional to the ATP concentration in cells, the amount of luminescence was used as an indicator of the number of viable cells. Sensitivity-enhancing effects (SER) to ionizing radiation by the test compound was calculated by the following equation. SER=(amount of luminescence of wells including DMSO having a final concentration of 0.1% in the plates irradiated with ionizing radiation×amount of luminescence of wells including a compound in the plates not being irradiated with ionizing radiation)/(amount of luminescence of wells including the test compound in the plates irradiated with ionizing radiation×amount of luminescence of wells including DMSO having a final concentration of 0.1% in the plates not being irradiated with ionizing radiation)
SER at each compound concentration was plotted by nonlinear regression fit (FitModel (205)) by a sigmoidal dose-response equation using XLfit software (IDBS), and the concentration (SER2) in which SER became 2 was calculated.

How did the SER2 (concentration at which the radiation sensitivity-enhancement ratio reaches 2) turn out when `CN(C)c1cnc(CNc2ccc3c(c2)Cc2cccc(-c4cc(N5CCOCC5)cc(=O)[nH]4)c2O3)cn1` [Example 2-2-37] was run?
The SER2 (concentration at which the radiation sensitivity-enhancement ratio reaches 2) was 500 to 2000 nM.

How did the SER2 (concentration at which the radiation sensitivity-enhancement ratio reaches 2) turn out when `CC(CNc1ccc2c(c1)Sc1cccc(-c3cc(N4CCOCC4)cc(=O)[nH]3)c1S2)N1CCOCC1` (racemic) [Example 1-9-2-1, 4-Morpholino-6-(7-((2-morpholinopropyl)amino)thianthren-1-yl)pyridin-2(1H)-one] was run?
Its SER2 (concentration at which the radiation sensitivity-enhancement ratio reaches 2) is 100 to 500 nM.

With `O=c1cc(N2CCOCC2)cc(-c2cccc3c2Oc2ccc(NCc4ccnc(Br)c4)cc2S3)[nH]1` [Example 4-4-16, 6-(8-(((2-Bromopyridin-4-yl)methyl)amino)phenoxathiin-4-yl)-4-morpholino pyridin-2(1H)-one] as the compound, how does the SER2 (concentration at which the radiation sensitivity-enhancement ratio reaches 2) read?
The SER2 (concentration at which the radiation sensitivity-enhancement ratio reaches 2) was 100 to 500 nM.

With `COc1ccnc(CNc2ccc3c(c2)Sc2cccc(-c4cc(N5CCOCC5)cc(=O)[nH]4)c2O3)c1` [Example 4-8-8, 6-(8-(((4-Methoxypyridin-2-yl)methyl)amino)phenoxathiin-4-yl)-4-morpholino pyridin-2 (1H)-one] as the compound, how does the SER2 (concentration at which the radiation sensitivity-enhancement ratio reaches 2) read?
Its SER2 (concentration at which the radiation sensitivity-enhancement ratio reaches 2) is 100 to 500 nM.

With `Cc1cnc(C(C)Nc2ccc3c(c2)Cc2cccc(-c4cc(N5CCOCC5)cc(=O)[nH]4)c2O3)cn1` (single isomer, unassigned) [Example 2-14-90-2, 6-(7-((1-(5-methylpyrazin-2-yl)ethyl)amino)-9H-xanthen-4-yl)-4-morpholinopyridin-2(1H)-one] as the compound, how does the SER2 (concentration at which the radiation sensitivity-enhancement ratio reaches 2) read?
Its SER2 (concentration at which the radiation sensitivity-enhancement ratio reaches 2) is less than 100 nM.
